Results on five molecules are retold here after patent US8673938B2, “Chemical compounds” (priority 2006, dated 2014).

The target in experiment [1] is T1, human 11βHSD1 enzyme (Homo sapiens (Human), UniProt P28845). The experiment in a line: biochemical. The settings on record: read-out: % inhibition of human 11-βHSD.
Procedure: (§1) The evaluation of compounds described herein was carried out using a baculovirus expressed N terminal 6-His tagged full length human 11βHSD1 enzyme(*1). […] Inhibitors of 11βHSD1 reduce the conversion of cortisone to cortisol, which is identified by an increase in signal, in the above assay.
(§2) Compounds to be tested were dissolved in dimethyl sulphoxide (DMSO) to 10 mM and diluted further in assay buffer containing 1% DMSO to 10 fold the final assay concentration. Diluted compounds were then plated into black 384 well plates (Matrix, Hudson N.H., USA).
(§3) The assay plates were incubated for 25 minutes at 37° C. after which time the reaction was stopped by the addition of 10 μl of 0.5 mM glycerrhetinic acid plus conjugated cortisol (XL665 or D2). 10 μl of anti-cortisol Cryptate was then added and the plates sealed and incubated for 6 hours at room temperature.
For experiment [2], the target named is T1, human 11βHSD1 enzyme. The following applies: for % inhibition of human 11-βHSD: test concentration of 30 μM of compound.
Procedure: as §1, §2, §3

T1 sequence (P28845 whole entry): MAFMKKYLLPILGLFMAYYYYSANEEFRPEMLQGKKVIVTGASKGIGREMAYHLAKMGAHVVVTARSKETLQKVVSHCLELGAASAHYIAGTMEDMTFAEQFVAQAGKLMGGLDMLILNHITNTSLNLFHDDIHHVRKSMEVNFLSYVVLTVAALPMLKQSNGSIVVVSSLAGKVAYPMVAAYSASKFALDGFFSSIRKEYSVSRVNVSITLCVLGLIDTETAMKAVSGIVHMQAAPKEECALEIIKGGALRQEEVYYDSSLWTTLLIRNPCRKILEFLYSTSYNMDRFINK

In general, inhibition refers to the relative decrease from the control value, in per cent. The IC50 is the concentration that gives 50% inhibition. Higher therefore signals lower potency. Regarding `CCCSc1nc(N2CCC[C@H](CC(=O)O)C2)ccc1C(=O)NC1CCCCC1` [Example 1, 2-[(3R)-1-[5-(Cyclohexylcarbamoyl)-6-propylsulfanyl-pyridin-2-yl]-3-piperidyl]acetic acid], the inhibition at 30 µM in experiment [1] is 87%. Also, the midpoint of inhibition in experiment [2], the IC50, lay at 0.095 µM. For `CCCSc1nc(N2CCC[C@@H](CC(=O)O)C2)ccc1C(=O)NC1CCCCC1` [Example 7, 2-[(3S)-1-[5-(cyclohexylcarbamoyl)-6-propylsulfanyl-pyridin-2-yl]-3-piperidyl]acetic acid], in experiment [1], the inhibition at 30 µM is 87%. In experiment [2], this molecule yielded an IC50 of 0.007 µM.

On to `O=C(O)C[C@@H]1CCCN(c2ccc(C(=O)NC3C4CC5CC(C4)CC3C5)c(C3CC3)n2)C1` (stereo partly shown) [compound 166], for which, in experiment [2], the “% inhibition of human 11-βHSD” value was determined as 95%.

As for `O=C(O)C[C@@H]1CCCN(c2ccc(C(=O)NC3C4CC5CC3CC(O)(C5)C4)c(SCCc3ccccc3)n2)C1` (stereo partly shown) [compound 108], the “% inhibition of human 11-βHSD” value in experiment [2] stood at 88%. For `Cc1nc(N2CCC[C@@H](CC(=O)O)C2)ccc1C(=O)NC12CC3CC(CC(C3)C1)C2` [compound 160], in experiment [2], the “% inhibition of human 11-βHSD” value was 80%.
